Experimental data reported in patent publication US6706663B2, “Herbicidal 3-heterocyclic substituted benzisothiazole and benzisoxazole compounds” (Wyeth, priority 2000, dated 2004).

Key:
[1] = system: ABUTH (Abutilon theophrasti); experiment: Preemergence herbicidal evaluation; assay type: in vivo, Medic.; settings: preemergence, rated 4-5 weeks after treatment
SETVI (Setaria viridis) = experiment: Preemergence herbicidal evaluation; assay type: in vivo, (L.) Beau; settings: preemergence, rated 4-5 weeks after treatment
In short: (§1)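 Preemergence soil spray, aq. acetone; greenhouse; visual 0–9 score vs control at 4–5 wk.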

[2] = system: ECHCG (Echinochloa crus-galli); experiment: Preemergence herbicidal evaluation; assay type: in vivo, (L.) Beau; settings: preemergence, rated 4-5 weeks after treatment
In short: as §1

CYPIR (Cyperus iria) = experiment: Flooded paddy, preemergence weed control; assay type: in vivo; settings: rated 3-4 weeks after treatment, 0-9 rating scale
In short: (§2)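 Plants were established from seed or propagating organs in flooded silt loam, with the water surface held 1.5 to 3 cm above the soil for the entire experiment. Injury was assessed visually against a control and given a 0-9 score.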

[3] = system: GLXMAW (Soybean, Williams); experiment: Preemergence herbicidal evaluation; assay type: in vivo, Glycine max, (L.) Merr. cv Williams; settings: preemergence, rated 4-5 weeks after treatment
ORYSAT (Rice, Tebonnet) [4] = experiment: Flooded paddy, post-transplant rice tolerance; assay type: in vivo, Oryza sativa, (L.) Tebonnet; settings: flooded paddy, post-transplant rice, rated 3-4 weeks after treatment, 0-9 rating scale
In short: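 Ten-day-old seedlings, 2/pot, silt loam; flood kept 1.5–3 cm over soil; herbicide applied post-transplant; greenhouse; score 0–9 visual vs control.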

[5] = system: IPOHE (Ipomoea hederacea); experiment: Preemergence herbicidal evaluation; assay type: in vivo, (L.) Jacq.; settings: preemergence, rated 4-5 weeks after treatment
[6] = system: TRZAWR (Wheat, Winter, cv Riband); experiment: Preemergence herbicidal evaluation; assay type: in vivo, Triticum aestivum; settings: preemergence, rated 4-5 weeks after treatment
In short: as §1

[7] = system: ABUTH (Abutilon theophrasti); experiment: Postemergence herbicidal evaluation; assay type: in vivo, Medic.
In short: (§3)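 Visual 0–9 injury scores versus control plants, covering stand, vigour, malformation, size, chlorosis and general appearance, taken four to five weeks post-spray and averaged over replicate tests. Plants were sprayed at roughly two weeks old and held on greenhouse benches.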

[8] = system: GLXMAW (Soybean, Williams); experiment: Postemergence herbicidal evaluation; assay type: in vivo, Glycine max, (L.) Merr. cv Williams
In short: as §3

[9] = system: CHEAL (Chenopodium album); experiment: Preemergence herbicidal evaluation; assay type: in vivo, L.; settings: preemergence, rated 4-5 weeks after treatment
In short: as §1

[10] = system: CASOB (Cassia obtusifolia); experiment: Preemergence herbicidal evaluation; assay type: in vivo, L.; settings: preemergence, rated 4-5 weeks after treatment
In short: as §1

[11] = system: AMBEL (Ambrosia artemisifolia); experiment: Preemergence herbicidal evaluation; assay type: in vivo, L.; settings: preemergence, rated 4-5 weeks after treatment
In short: as §1

ORYSAT (Rice, Tebonnet) [12] = experiment: Postemergence herbicidal evaluation; assay type: in vivo, Oryza sativa, (L.) Tebonnet
In short: as §3

[13] = system: MOOVA (Monochoria vaginalis); experiment: Flooded paddy, preemergence weed control; assay type: in vivo, Presl.; settings: rated 3-4 weeks after treatment, 0-9 rating scale
In short: as §2

ZEAMX (Corn, Field) = experiment: Preemergence herbicidal evaluation; assay type: in vivo, Zea mays, L.; settings: preemergence, rated 4-5 weeks after treatment
[14] = system: CHEAL (Chenopodium album); experiment: Postemergence herbicidal evaluation; assay type: in vivo, L.
In short: as §3

[15] = system: CASOB (Cassia obtusifolia); experiment: Postemergence herbicidal evaluation; assay type: in vivo, L.
In short: as §3

[16] = system: AMBEL (Ambrosia artemisifolia); experiment: Postemergence herbicidal evaluation; assay type: in vivo, L.
In short: as §3

[17] = system: IPOHE (Ipomoea hederacea); experiment: Postemergence herbicidal evaluation; assay type: in vivo, (L.) Jacq.
In short: as §3

## Cn1c(C(F)(F)F)cc(=O)n(-c2ccc3snc(C4SCCN4C(=O)c4ccccc4)c3c2)c1=O (centres unmarked) [Compound 30, 3-benzoyl-2-[5-[3,6-dihydro-3-methyl-2,6-dioxo-4-(trifluoromethyl)-1(2H)-pyrimidinyl]-1,2-benzisothiazol-3-yl]thiazolidine]
[1]; Rate 0.0620 kg/ha
  ABUTH preemergence herbicidal rating: 9.0
[1]; Rate 0.1250 kg/ha
  ABUTH preemergence herbicidal rating: 9.0
[1]; Rate 0.2500 kg/ha
  ABUTH preemergence herbicidal rating: 9.0
SETVI (Setaria viridis); Rate 0.0620 kg/ha
  SETVI preemergence herbicidal rating: 1.0
SETVI (Setaria viridis); Rate 0.1250 kg/ha
  SETVI preemergence herbicidal rating: 8.0
SETVI (Setaria viridis); Rate 0.2500 kg/ha
  SETVI preemergence herbicidal rating: 9.0
[2]; Rate 0.0620 kg/ha
  ECHCG preemergence herbicidal rating: 0.0
[2]; Rate 0.1250 kg/ha
  ECHCG preemergence herbicidal rating: 4.0
[2]; Rate 0.2500 kg/ha
  ECHCG preemergence herbicidal rating: 5.0
CYPIR (Cyperus iria); rate 0.0080 kg/ha
  herbicidal rating, CYPIR: 0.0
CYPIR (Cyperus iria); rate 0.0320 kg/ha
  herbicidal rating, CYPIR: 7.0
CYPIR (Cyperus iria); rate 0.1250 kg/ha
  herbicidal rating, CYPIR: 9.0
[3]; Rate 0.0620 kg/ha
  GLXMAW preemergence herbicidal rating: 1.0
[3]; Rate 0.1250 kg/ha
  GLXMAW preemergence herbicidal rating: 0.0
[3]; Rate 0.2500 kg/ha
  GLXMAW preemergence herbicidal rating: 5.0
ORYSAT (Rice, Tebonnet) [4]; rate 0.0080 kg/ha
  herbicidal rating, ORYSAT (rice tolerance): 0.0
ORYSAT (Rice, Tebonnet) [4]; rate 0.0320 kg/ha
  herbicidal rating, ORYSAT (rice tolerance): 3.0
ORYSAT (Rice, Tebonnet) [4]; rate 0.1250 kg/ha
  herbicidal rating, ORYSAT (rice tolerance): 5.0
[5]; Rate 0.0620 kg/ha
  IPOHE preemergence herbicidal rating: 1.5
[5]; Rate 0.1250 kg/ha
  IPOHE preemergence herbicidal rating: 1.5
[5]; Rate 0.2500 kg/ha
  IPOHE preemergence herbicidal rating: 6.5
[6]; Rate 0.0620 kg/ha
  TRZAWR preemergence herbicidal rating: 0.0
[6]; Rate 0.1250 kg/ha
  TRZAWR preemergence herbicidal rating: 2.0
[6]; Rate 0.2500 kg/ha
  TRZAWR preemergence herbicidal rating: 6.0
[7]; rate 0.0320 kg/ha
  Postemergence herbicidal rating, ABUTH: 9.0
[7]; rate 0.0620 kg/ha
  Postemergence herbicidal rating, ABUTH: 9.0
[8]; rate 0.0320 kg/ha
  Postemergence herbicidal rating, GLXMAW: 6.0
[8]; rate 0.0620 kg/ha
  Postemergence herbicidal rating, GLXMAW: 6.5
[9]; Rate 0.0620 kg/ha
  CHEAL preemergence herbicidal rating: 9.0
[9]; Rate 0.1250 kg/ha
  CHEAL preemergence herbicidal rating: 9.0
[9]; Rate 0.2500 kg/ha
  CHEAL preemergence herbicidal rating: 9.0
[10]; Rate 0.0620 kg/ha
  CASOB preemergence herbicidal rating: 0.0
[10]; Rate 0.1250 kg/ha
  CASOB preemergence herbicidal rating: 1.5
[10]; Rate 0.2500 kg/ha
  CASOB preemergence herbicidal rating: 3.0
[11]; Rate 0.0620 kg/ha
  AMBEL preemergence herbicidal rating: 4.5
[11]; Rate 0.1250 kg/ha
  AMBEL preemergence herbicidal rating: 7.5
[11]; Rate 0.2500 kg/ha
  AMBEL preemergence herbicidal rating: 9.0
ORYSAT (Rice, Tebonnet) [12]; rate 0.0320 kg/ha
  Postemergence herbicidal rating, ORYSAT: 2.0
ORYSAT (Rice, Tebonnet) [12]; rate 0.0620 kg/ha
  Postemergence herbicidal rating, ORYSAT: 3.0
[13]; rate 0.0080 kg/ha
  herbicidal rating, MOOVA: 0.0
[13]; rate 0.0320 kg/ha
  herbicidal rating, MOOVA: 8.5
[13]; rate 0.1250 kg/ha
  herbicidal rating, MOOVA: 9.0
ZEAMX (Corn, Field); Rate 0.0620 kg/ha
  ZEAMX preemergence herbicidal rating: 0.5
ZEAMX (Corn, Field); Rate 0.1250 kg/ha
  ZEAMX preemergence herbicidal rating: 3.5
ZEAMX (Corn, Field); Rate 0.2500 kg/ha
  ZEAMX preemergence herbicidal rating: 5.5
[14]; rate 0.0320 kg/ha
  Postemergence herbicidal rating, CHEAL: 4.0
[14]; rate 0.0620 kg/ha
  Postemergence herbicidal rating, CHEAL: 9.0
[15]; rate 0.0320 kg/ha
  Postemergence herbicidal rating, CASOB: 0.0
[15]; rate 0.0620 kg/ha
  Postemergence herbicidal rating, CASOB: 2.0
[16]; rate 0.0320 kg/ha
  Postemergence herbicidal rating, AMBEL: 4.0
[16]; rate 0.0620 kg/ha
  Postemergence herbicidal rating, AMBEL: 9.0
[17]; rate 0.0320 kg/ha
  Postemergence herbicidal rating, IPOHE: 7.0
[17]; rate 0.0620 kg/ha
  Postemergence herbicidal rating, IPOHE: 9.0
